Literature values, collected in patent US9326524B1, “Insect repellent compositions” (Nantucket Spider, LLC, priority 2014, dated 2016).

Test system: mosquitoes
Details: compared with naturally derived PMD in the form of OLE

CC1CCC(C(C)(C)O)C(O)C1 (stereo not shown) [Pure PMD, p-Menthane-3,8-diol]
efficacy in repelling mosquitoes: significantly less efficacious
